Results taken from PubChem BioAssay AID256 (DTP/NCI, 2004).
Values joined by “and” are separate entries in the source; they are usually repeats but may differ in a detail not shown here. Identical values can stand only once. Toxic doses and inconclusive results are not listed. The calls were made as follows: active = survival T/C of 150% or more; inactive = T/C below 125% in these data.

Tested on: CD2F1 mice, L1210 leukemia ip, survival T/C
Assay: NCI In Vivo Anticancer Drug Screen. Data for tumor model L1210 Leukemia (intraperitoneal) in CD2F1 (CDF1) mice
Details: higher = longer survival
Summary of the method: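 Each value reflects a quotient of treated over vehicle control outcomes in mice with a transplanted tumor.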

[1] = endpoint: mean survival time, dose: 100.0 mg/kg/injection, schedule: Q01DX009 (ip), vehicle: saline with Tween-80
[2] = endpoint: mean survival time, dose: 200.0 mg/kg/injection, schedule: Q01DX009 (ip), vehicle: saline with Tween-80
[3] = endpoint: mean survival time, dose: 100.0 mg/kg/injection, schedule: Q04DX003 (ip), vehicle: saline
[4] = endpoint: mean survival time, dose: 200.0 mg/kg/injection, schedule: Q04DX003 (ip), vehicle: saline
[5] = endpoint: mean survival time, dose: 50.0 mg/kg/injection, schedule: Q01DX009 (ip), vehicle: saline with Tween-80
[6] = endpoint: mean survival time, dose: 6.25 mg/kg/injection, schedule: Q01DX009 (ip), vehicle: saline with Tween-80
[7] = endpoint: mean survival time, dose: 12.5 mg/kg/injection, schedule: Q01DX009 (ip), vehicle: saline with Tween-80
[8] = endpoint: mean survival time, dose: 25.0 mg/kg/injection, schedule: Q01DX009 (ip), vehicle: saline with Tween-80
[9] = endpoint: mean survival time, dose: 100.0 mg/kg/injection, schedule: Q04DX003 (ip), vehicle: Klucel (hydroxypropylcellulose) (HPC)

Measured: T/C

COC(=O)C12OCC34C(CC5C(C)=CC(=O)C(O)C5(C)C3C(O)C1O)OC(=O)C(OC(=O)CC(C)C)C24 (configuration not stated)
inactive: endpoint: mean survival time, dose: 0.12 mg/kg/injection, schedule: Q01DX009 (ip), vehicle: saline + alcohol 101 % of control | endpoint: mean survival time, dose: 0.13 mg/kg/injection, schedule: Q01DX009 (ip), vehicle: saline + alcohol 102 % of control | endpoint: mean survival time, dose: 0.25 mg/kg/injection, schedule: Q01DX009 (ip), vehicle: saline + alcohol 100 % of control and 102 % of control | endpoint: mean survival time, dose: 0.5 mg/kg/injection, schedule: Q01DX009 (ip), vehicle: saline + alcohol 113 % of control and 95 % of control | endpoint: mean survival time, dose: 1.0 mg/kg/injection, schedule: Q01DX009 (ip), vehicle: saline + alcohol 101 % of control and 105 % of control | endpoint: mean survival time, dose: 2.0 mg/kg/injection, schedule: Q01DX009 (ip), vehicle: saline + alcohol 97 % of control and 104 % of control | endpoint: mean survival time, dose: 4.0 mg/kg/injection, schedule: Q01DX009 (ip), vehicle: saline + alcohol 104 % of control and 109 % of control

Cc1cccnc1Br
inactive: endpoint: mean survival time, dose: 12.5 mg/kg/injection, schedule: Q01DX009 (ip), vehicle: water 95 % of control | endpoint: mean survival time, dose: 25.0 mg/kg/injection, schedule: Q01DX009 (ip), vehicle: water 103 % of control | endpoint: mean survival time, dose: 50.0 mg/kg/injection, schedule: Q01DX009 (ip), vehicle: water 95 % of control | endpoint: mean survival time, dose: 100.0 mg/kg/injection, schedule: Q01DX009 (ip), vehicle: water 95 % of control | endpoint: mean survival time, dose: 200.0 mg/kg/injection, schedule: Q01DX009 (ip), vehicle: water 88 % of control

CC(C)(C(=O)c1ccccc1)C(=O)c1ccccc1
inactive: endpoint: mean survival time, dose: 50.0 mg/kg/injection, schedule: Q01DX001 (ip), vehicle: saline with Tween-80 104 % of control | endpoint: mean survival time, dose: 100.0 mg/kg/injection, schedule: Q01DX001 (ip), vehicle: saline with Tween-80 102 % of control | [1] 100 % of control | endpoint: mean survival time, dose: 200.0 mg/kg/injection, schedule: Q01DX001 (ip), vehicle: saline with Tween-80 100 % of control | [2] 94 % of control | endpoint: mean survival time, dose: 400.0 mg/kg/injection, schedule: Q01DX009 (ip), vehicle: saline with Tween-80 98 % of control

CC(CCC(C)OS(C)(=O)=O)OS(C)(=O)=O (configuration not stated)
inactive: endpoint: mean survival time, dose: 4.0 mg/kg/injection, schedule: Q01DX009 (ip), vehicle: saline 118 % of control and 107 % of control | endpoint: mean survival time, dose: 8.0 mg/kg/injection, schedule: Q01DX009 (ip), vehicle: saline 110 % of control

Cc1c[nH]c(=S)[nH]c1=O.[Pd]
inactive: endpoint: mean survival time, dose: 3.12 mg/kg/injection, schedule: Q04DX003 (ip), vehicle: saline 94 % of control | endpoint: mean survival time, dose: 6.25 mg/kg/injection, schedule: Q04DX003 (ip), vehicle: saline 102 % of control | endpoint: mean survival time, dose: 12.5 mg/kg/injection, schedule: Q04DX003 (ip), vehicle: saline 97 % of control | endpoint: mean survival time, dose: 25.0 mg/kg/injection, schedule: Q04DX003 (ip), vehicle: saline 102 % of control | endpoint: mean survival time, dose: 50.0 mg/kg/injection, schedule: Q04DX003 (ip), vehicle: saline 100 % of control | [3] 100 % of control | [4] 96 % of control

COC(=O)C1(C)CSCCC1=O (configuration not stated)
inactive: [3] 107 % of control | [4] 96 % of control | endpoint: mean survival time, dose: 400.0 mg/kg/injection, schedule: Q04DX003 (ip), vehicle: saline 96 % of control

Nc1ccc(-c2ccccc2-c2ccccc2)cc1
inactive: endpoint: mean survival time, dose: 100.0 mg/kg/injection, schedule: Q01DX009 (ip), vehicle: acetone 101 % of control | endpoint: mean survival time, dose: 200.0 mg/kg/injection, schedule: Q01DX009 (ip), vehicle: acetone 105 % of control

O=C(O)CN(CC(=O)O)Cc1ccccc1
inactive: endpoint: mean survival time, dose: 100.0 mg/kg/injection, schedule: Q01DX001 (ip), vehicle: saline 103 % of control | endpoint: mean survival time, dose: 200.0 mg/kg/injection, schedule: Q01DX001 (ip), vehicle: saline 103 % of control | endpoint: mean survival time, dose: 400.0 mg/kg/injection, schedule: Q01DX001 (ip), vehicle: saline 103 % of control

CCCC/C=C/C=C/CCCC
inactive: [5] 103 % of control | [1] 92 % of control | [2] 107 % of control

CSc1nc(N)c(N=O)c(=O)[nH]1
inactive: endpoint: mean survival time, dose: 100.0 mg/kg/injection, schedule: Q01DX001 (ip), vehicle: Klucel (hydroxypropylcellulose) (HPC) 98 % of control | endpoint: mean survival time, dose: 200.0 mg/kg/injection, schedule: Q01DX001 (ip), vehicle: Klucel (hydroxypropylcellulose) (HPC) 100 % of control | endpoint: mean survival time, dose: 400.0 mg/kg/injection, schedule: Q01DX001 (ip), vehicle: Klucel (hydroxypropylcellulose) (HPC) 109 % of control

COC1=C(OC)C(=O)C(SCCCc2ccccc2)=CC1=O
inactive: [6] 98 % of control | [7] 102 % of control | [8] 93 % of control

NC(C(=O)[O-])C(=O)[O-].NC1CCCCC1N.[Pt+4]
inactive: endpoint: median survival time, dose: 1.0 mg/kg/injection, schedule: Q04DX003 (ip), vehicle: water 109 % of control | endpoint: median survival time, dose: 2.0 mg/kg/injection, schedule: Q04DX003 (ip), vehicle: water 124 % of control

CC(=O)CC(OC(=O)c1cc([N+](=O)[O-])cc([N+](=O)[O-])c1)(C(F)(F)F)C(F)(F)F
inactive: [9] 91 % of control

CN(C)CCOc1ccc2c(c1)C/C(=C/c1ncc([N+](=O)[O-])n1C)C2=O
inactive: [6] 96 % of control and 98 % of control | [7] 107 % of control | [8] 107 % of control and 108 % of control | [5] 117 % of control and 107 % of control | [1] 119 % of control and 104 % of control | [2] 111 % of control

O=C(Cc1ccc([N+](=O)[O-])cc1)c1ccc(O)cc1O
inactive: [9] 96 % of control | endpoint: mean survival time, dose: 200.0 mg/kg/injection, schedule: Q04DX003 (ip), vehicle: Klucel (hydroxypropylcellulose) (HPC) 98 % of control | endpoint: mean survival time, dose: 400.0 mg/kg/injection, schedule: Q04DX003 (ip), vehicle: Klucel (hydroxypropylcellulose) (HPC) 103 % of control

O=C(O)/C=C\c1ccc(OC(=O)c2ccccc2)cc1
inactive: endpoint: mean survival time, dose: 50.0 mg/kg/injection, schedule: Q01DX009 (ip), vehicle: Klucel (hydroxypropylcellulose) (HPC) 96 % of control | endpoint: mean survival time, dose: 100.0 mg/kg/injection, schedule: Q01DX009 (ip), vehicle: Klucel (hydroxypropylcellulose) (HPC) 93 % of control | endpoint: mean survival time, dose: 200.0 mg/kg/injection, schedule: Q01DX009 (ip), vehicle: Klucel (hydroxypropylcellulose) (HPC) 93 % of control

CCN(CC)CCN1Cc2ccccc2C1
inactive: [8] 102 % of control | [5] 94 % of control | [1] 96 % of control and 107 % of control
